{"source": "patent US7863247B1", "about": "“Prevention of fetal alcohol syndrome and neuronal cell death with ADNF polypeptides” (Ramot-University Authority for Applied Research and …, priority 2000, dated 2011)", "key": {"[1]": {"test_system": "C57-B16J mice exposed to alcohol in utero", "experiment": "Fetal death (% demises at E18) in the FAS model", "type": "in vivo", "conditions": "pretreatment 30 min prior to alcohol on E8 (NAP 20 μg; NAP 20 μg+SAL 20 μg; VIP 1 μg); counted at E18", "description": "(§1) A published well-delineated model for FAS was followed (Webster et al., Neurobehav Tox, 2:227-34 (1980)). Animals were injected (intraperitoneal) on E8 with 25% ethyl alcohol in saline (v/v) or vehicle alone at 0.030 ml/g body weight at 0900 on E8. Pretreatment with VIP and ADNF polypeptides (e.g., NAP, SAL, NAP+SAL) were given 30 min prior to alcohol. Post-treatment with NAP+SAL was given at 1 or 3 h after alcohol. Dosages of the neuropeptides were NAP (20 μg and 40 μg), SAL (20 μg), NAP (20 μg)+SAL (20 μg); VIP (1 μg). NAP+SAL without alcohol was also studied. NAP was diluted in 50 μl DMSO and diluted in filtered Dulbecco's phosphate buffered saline (DPBS). SAL was dissolved and diluted in filtered DPBS. VIP was dissolved in 20 μl glacial acetic acid and diluted in HPLC water and DPBS. […]\n(§2) At E18 (embryonic gestation day 18), the number of live and demised fetuses was determined. […] The mean fetal weights were determined for each mother, and this was used for statistical analysis.\n(§3) The mean litter pup and fetal brain weight was calculated, with the litter mean used for all statistical analysis. Percent demises were calculated by dividing the number of demises by the total number of fetuses (live plus demises). […]"}, "[2]": {"test_system": "C57-B16J mice exposed to alcohol in utero", "experiment": "Fetal weights at E18 in the FAS model", "type": "in vivo", "description": "A published well-delineated model for FAS was followed (Webster et al., Neurobehav Tox, 2:227-34 (1980)). Animals were injected (intraperitoneal) on E8 with 25% ethyl alcohol in saline (v/v) or vehicle alone at 0.030 ml/g body weight at 0900 on E8. Pretreatment with VIP and ADNF polypeptides (e.g., NAP, SAL, NAP+SAL) were given 30 min prior to alcohol. Post-treatment with NAP+SAL was given at 1 or 3 h after alcohol. Dosages of the neuropeptides were NAP (20 μg and 40 μg), SAL (20 μg), NAP (20 μg)+SAL (20 μg); VIP (1 μg). NAP+SAL without alcohol was also studied. NAP was diluted in 50 μl DMSO and diluted in filtered Dulbecco's phosphate buffered saline (DPBS). SAL was dissolved and diluted in filtered DPBS. VIP was dissolved in 20 μl glacial acetic acid and diluted in HPLC water and DPBS. Since the animals receiving alcohol were incapacitated for approximately 6 hours following injection, food and water were withheld from all groups for the initial 6 hours, to allow accurate assessment of fetal weights.\nAt E18 (embryonic gestation day 18), the number of live and demised fetuses was determined. Fetal weights and fetal brain weights were obtained for each fetus in the litter. The mean fetal weights were determined for each mother, and this was used for statistical analysis.\nThe mean litter pup and fetal brain weight was calculated, with the litter mean used for all statistical analysis. Percent demises were calculated by dividing the number of demises by the total number of fetuses (live plus demises). Statistical analysis included ANOVA for continuous variables, Mann-Whitney U for nonparametic data, Chi square for categorical variables or Fisher's exact test where appropriate [Statview 4.5 (Abacus Concepts, Inc., Berkeley, Calif.)] with p<0.05 considered significant. Results are presented as mean±standard error unless specified."}, "[3]": {"experiment": "Bioavailability of 3H-NAP to embryos (size exclusion chromatography)", "type": "in vivo, mice", "description": "FIG. 7a and FIG. 7b illustrate chromatographs of radiolabel (^3H) present in 1 ml fractions from a size exclusion column (Superdex Peptide HR 10/30, Pharmacia Biotech). ^3H-NAP (2 μCi/20 μg) was administered intraperitoneally to pregnant mice at E8. Intact NAP was present in fractions 15-17 denoted by shaded grey bar on graphs. FIG. 7a illustrates a pooled sample of three embryos (different litters) after a thirty minute exposure to ^3H-NAP. Based on this accumulation of labeled peptide, approximately 1 pmoles of NAP was found in the embryo, with an estimated concentration of 10 nM, well within the therapeutic range of NAP. FIG. 7b illustrates a pooled sample of three embryos (different litters) after a sixty minute exposure to ^3H-NAP.\nThe bioavailability of NAP to embryos was assessed by intraperitoneal administration of ^3H-NAP (2 μCi/20 μg) to pregnant mice at E8. […] Based on this accumulation of labeled peptide, approximately […] of NAP was found in the embryo, with an estimated concentration of 10 nM, well within the therapeutic range of NAP."}, "[4]": {"test_system": "C57-B16J mice exposed to alcohol in utero", "experiment": "Fetal brain weights at E18 in the FAS model", "type": "in vivo", "conditions": "pretreatment 30 min prior to alcohol on E8 (SAL 20 μg; NAP 20 μg+SAL 20 μg)", "description": "as §1, §2, §3"}, "[5]": {"conditions": "pretreatment 30 min prior to alcohol on E8 (NAP 20 μg; SAL 20 μg; NAP 20 μg+SAL 20 μg; VIP 1 μg)"}}, "note": "No end group written: not given here."}
{"substance": "Asn-Ala-Pro-Val-Ser-Ile-Pro-Gln [NAP]", "values": [{"measurement": "percentage of fetal demises", "setting": "[1]", "result": "prevented the death seen with alcohol"}, {"measurement": "fetal weights (alcohol-induced growth restriction)", "setting": "[2]; [5]", "result": "moderately prevented the alcohol-induced growth restrictions"}, {"measurement": "fetal weights (alcohol-induced growth restriction)", "setting": "[2]; pretreatment with a double dosage of NAP (40 μg)", "result": "moderately prevented the alcohol-induced growth restriction"}, {"measurement": "estimated concentration of NAP in the embryo", "setting": "[3]; 3H-NAP 2 μCi/20 μg intraperitoneal at E8, 30 min", "result": "~10", "unit": "nM"}, {"measurement": "radioactivity recovered in the embryo co-migrating with intact NAP", "setting": "[3]; 3H-NAP 2 μCi/20 μg intraperitoneal to pregnant mice at E8, 30 min after administration", "result": 60, "unit": "%"}]}
{"substance": "SALLRSIPA", "values": [{"measurement": "fetal weights (alcohol-induced growth restriction)", "setting": "[2]; [5]", "result": "did not prevent the alcohol-induced fetal weight reduction"}, {"measurement": "fetal brain weights (alcohol-induced microcephaly)", "setting": "[4]", "result": "moderately prevented the alcohol-induced fetal brain weight reduction"}]}
{"substance": "vasoactive intestinal peptide (HSDAVFTDNYTRLRKQMAVKKYLNSILN; ends and bridges not checked; UniProt P01282 125-152, looked up) [VIP, neuropeptide that is a regulator of early postimplantation mouse embryonic growth, reference compound]", "values": [{"measurement": "percentage of fetal demises", "setting": "[1]", "result": "did not reverse the fetal death rate"}, {"measurement": "fetal weights (alcohol-induced growth restriction)", "setting": "[2]; [5]", "result": "improved embryonic weights; however, the effect was intermediate and not statistically significant"}]}
